Measured values reported in PMC11316111, “Mechanism of allosteric inhibition of human p97/VCP ATPase and its disease mutant by triazole inhibitors” (Communications Chemistry, 2024).
Where “and” joins values, the source holds several entries; their conditions need not be identical. Equal entries are not always repeated. Where two headings read alike, the source gives them in different places.

Tests used:
[1] = tested on: HCT116 p97P510S; test: Cellular viability, resistant HCT116 p97P510S; type: cell-based; conditions: Homo sapiens, HCT-116, Table S3, four replicates
Procedure: (§1) Drug-resistant HCT116 cell lines were derived using the method previously described and with certain modifications[70],[99]. […] Drug-resistant clones were transferred into a new plate for passaging, and subsequently used to study drug resistance and identify the p97 mutations.
(§2) Anti-proliferative activity was measured using CellTiter Glo® Luminescent Cell Viability Assay (Promega G7572) according to the manufacturer’s procedure as described. RMPI1640 containing 5% FBS and 1% penicillin-streptomycin was used as a cell viability medium. A standard curve of HCT116 was generated for finding the linear relationship between the relative luminescence unit and the number of viable cells. […] 24 h after seeding, 8 μL of media containing 5% DMSO was added to each well, and the plate was incubated for an additional 48 h. To test the anti-proliferative activity of p97 inhibitors, we seeded HCT116 at 750 cells per well according to the linear range. […] After 48 h of treatment, cell viability was measured by adding CellTiter Glo reagent and reading the signal with a BioTek Synergy Neo plate reader (Agilent, Santa Clara, CA). The IC50 values were calculated from four replicates using the percentage of growth of treated cells versus the DMSO control. The results were analyzed using GraphPad Prism 7.0 (GraphPad, Boston, MA).

[2] = tested on: HCT116 p97F618S; test: Cellular viability, resistant HCT116 p97F618S; type: cell-based; conditions: Homo sapiens, HCT-116, Table S3, four replicates
Procedure: as §1, §2

[3] = tested on: HCT116 p97K512N; test: Cellular viability, resistant HCT116 p97K512N; type: cell-based; conditions: Homo sapiens, HCT-116, Table S3, four replicates
Procedure: as §1, §2

[4] = tested on: HCT116 p97WT; test: HCT116 proliferation assay (CellTiter Glo); type: cell-based; parameters: key to cellular viability of HCT116: % of DMSO control viability; conditions: for IC50 / viability at 0.06 µM / viability at 0.17 µM / viability at 0.52 µM / viability at 1.6 µM / viability at 4.7 µM / viability at 14 µM / viability at 42.1 µM: Homo sapiens; for cellular viability of HCT116 / viability at 0.06 µM / viability at 0.17 µM / viability at 0.52 µM / viability at 1.6 µM / viability at 4.7 µM / viability at 14 µM / viability at 42.1 µM: single replicates; for viability at 0.06 µM: HCT-116, 0.06 µM; for viability at 0.06 µM / viability at 0.17 µM / viability at 0.52 µM / viability at 1.6 µM / viability at 4.7 µM / viability at 14 µM / viability at 42.1 µM: read-out: cellular viability of HCT116; for viability at 0.17 µM: HCT-116, 0.17 µM; for viability at 0.52 µM: HCT-116, 0.52 µM; for viability at 1.6 µM: HCT-116, 1.60 µM; for viability at 4.7 µM: HCT-116, 4.70 µM; for viability at 14 µM: HCT-116, 14.0 µM; for viability at 42.1 µM: HCT-116, 42.1 µM
Procedure: as §2

[5] = tested on: Ub^G76V-GFP/ODD-Luc HeLa cells; test: Cellular Ub^G76V-GFP accumulation assay; type: cell-based; conditions: Homo sapiens, HeLa; Table S3; four replicates; read-out: UbG76V-GFP EC50
Procedure: ImageXpress high-content confocal microscope (Molecular Devices, LLC., San Jose, CA) was used to image cells at GFP channel. The percentage of Ub^G76V-GFP accumulation (%Acc) is calculated using the following formula: […]
The IC50 values were calculated by fitting the %Acc from four replicates with various concentrations of compounds using GraphPad Prism 7.0 (GraphPad, Boston, MA).

[6] = molecular target: T1, p97^P510S (Homo sapiens, UniProt P55072, P510S); test: p97 ATPase activity (Biomol Green), P510S mutant; type: biochemical; conditions: for IC50: 200 μM ATP, six replicates; for Ratio of IC50 values for mutants to IC50 values for wild-type p97, P510S: P510S/WT
T1 construct: made in house
Procedure: (§3) Results were calculated from 6 replicates using GraphPad Prism 7.0 (GraphPad Software, Boston, MA).

[7] = molecular target: T2, wild-type p97 (p97^WT) (Homo sapiens, UniProt P55072); test: p97 ATPase activity (Biomol Green), wild-type p97; type: biochemical; conditions: for IC50: 200 μM ATP, six replicates; for Ratio of IC50 values for mutants to IC50 values for wild-type p97, WT: WT/WT reference
T2 construct: made in house
Procedure: as §3

[8] = molecular target: T3, p97^F618S (Homo sapiens, UniProt P55072, F618S); test: p97 ATPase activity (Biomol Green), F618S mutant; type: biochemical; conditions: for IC50: 200 μM ATP, six replicates; for Ratio of IC50 values for mutants to IC50 values for wild-type p97, F618S: F618S/WT
T3 construct: made in house
Procedure: as §3

[9] = molecular target: T4, p97^K512N (Homo sapiens, UniProt P55072, K512N); test: p97 ATPase activity (Biomol Green), K512N mutant; type: biochemical; conditions: for IC50: 200 μM ATP, six replicates; for Ratio of IC50 values for mutants to IC50 values for wild-type p97, K512N: K512N/WT
T4 construct: made in house
Procedure: as §3

[10] = molecular target: T5, p97^N616F (Homo sapiens, UniProt P55072, N616F); test: p97 ATPase activity (Biomol Green), N616F mutant; type: biochemical; conditions: for IC50: 200 μM ATP, six replicates; for Ratio of IC50 values for mutants to IC50 values for wild-type p97, N616F: N616F/WT
T5 construct: made in house
Procedure: as §3

[11] = molecular target: T6, p97^R155H (Homo sapiens, UniProt P55072, R155H); test: p97 ATPase activity (Biomol Green), R155H mutant; type: biochemical; conditions: for IC50: 200 μM ATP, six replicates; for Ratio of IC50 values for mutants to IC50 values for wild-type p97, R155H: R155H/WT
T6 construct: enabling us to acquire high-resolution biomolecular structures of full-length p97; made in house
Procedure: as §3

[12] = HCT-116, Table S6, 48-hour treatment, read-out: Cell viability of HCT116 IC50
[13] = HCT-116, Table S3, cellular viability, four replicates, read-out: IC50 HCT116 p97WT

T3 sequence (P55072 whole entry F618S): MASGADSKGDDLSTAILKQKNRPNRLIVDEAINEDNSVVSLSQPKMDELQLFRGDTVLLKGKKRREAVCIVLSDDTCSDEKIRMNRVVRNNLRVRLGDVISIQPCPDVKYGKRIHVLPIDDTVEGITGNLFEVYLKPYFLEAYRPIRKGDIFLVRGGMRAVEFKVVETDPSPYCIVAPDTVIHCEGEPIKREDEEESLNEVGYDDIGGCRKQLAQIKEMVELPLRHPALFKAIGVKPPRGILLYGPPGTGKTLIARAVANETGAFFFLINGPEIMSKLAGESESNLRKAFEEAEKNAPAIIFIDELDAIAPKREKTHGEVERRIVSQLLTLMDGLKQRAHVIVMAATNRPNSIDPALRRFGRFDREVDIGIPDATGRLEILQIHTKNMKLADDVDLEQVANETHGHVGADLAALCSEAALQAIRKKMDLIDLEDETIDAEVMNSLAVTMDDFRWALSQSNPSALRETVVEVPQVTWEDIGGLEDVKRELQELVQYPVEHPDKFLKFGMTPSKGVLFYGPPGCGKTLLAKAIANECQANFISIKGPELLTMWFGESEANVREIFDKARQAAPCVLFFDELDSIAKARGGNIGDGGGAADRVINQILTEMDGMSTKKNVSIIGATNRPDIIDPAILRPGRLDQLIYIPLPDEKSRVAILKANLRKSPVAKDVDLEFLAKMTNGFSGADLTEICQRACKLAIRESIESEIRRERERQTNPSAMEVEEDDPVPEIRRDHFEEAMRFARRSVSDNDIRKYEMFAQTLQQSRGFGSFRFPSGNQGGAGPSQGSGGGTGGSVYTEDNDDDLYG
T6 sequence (P55072 whole entry R155H): as the sequence (P55072 whole entry F618S) above, with R155H, S618F counted along it
T1 sequence (P55072 whole entry P510S): as the sequence (P55072 whole entry F618S) above, with P510S, S618F counted along it
T2 sequence (P55072 whole entry): as the sequence (P55072 whole entry F618S) above, with S618F counted along it
T4 sequence (P55072 whole entry K512N): as the sequence (P55072 whole entry F618S) above, with K512N, S618F counted along it
T5 sequence (P55072 whole entry N616F): as the sequence (P55072 whole entry F618S) above, with N616F, S618F counted along it

`Cc1cc2c(C(N)=O)cccc2n1-c1nc2c(c(NCc3ccccc3)n1)COCC2` [CB-5083, 1-[4-(benzylamino)-5H,7H,8H-pyrano[3d,[4]]pyrimidin-2-yl]-2-methyl-1H-indole-4-carboxamide, reference compound] showed an IC50 [1] of 1000 nM, an IC50 [2] of 600 nM and an IC50 [3] of 500 nM. It also gave an IC50 ([4]; HCT-116, read-out: IC50 HCT116 p97WT) of 400 nM, an IC50 [4, 12] of 344 nM and an EC50 [5] of 430 nM.
For `CN1CCC(NC(=O)OCC#Cc2cc(F)c(OCc3nnc(S[C@H]4C=CCCC4)n3-c3cccnc3)cc2F)CC1` [UPCDC30766], the IC50 [1] was 10300 nM, the IC50 [3] was 7300 nM and the “cellular viability of HCT116” value ([4]; 0.06 µM) was 99 and 98 and 101. The “cellular viability of HCT116” value ([4]; 0.17 µM) was 95 and 90, the “cellular viability of HCT116” value ([4]; 0.52 µM) was 6 and the “cellular viability of HCT116” value ([4]; 14.0 µM) was 3. For the same compound, the “cellular viability of HCT116” value ([4]; 42.1 µM) was 1, the viability at 0.06 µM [4] was 94% and the viability at 0.17 µM [4] was 97%. It also gave a viability at 0.52 µM [4] of 5%, a viability at 1.6 µM [4] of 4% and a viability at 4.7 µM [4] of 5%. It also gave a viability at 14 µM [4] of 4%, a viability at 42.1 µM [4] of 2% and an IC50 [4, 13] of 290 nM. For the same compound, the IC50 [4, 12] was 296 nM and the EC50 [5] was 270 nM.
With `CN1CCC(NC(=O)OCC#Cc2c(F)cc(OCc3nnc(S[C@H]4C=CCCC4)n3-c3cccnc3)cc2F)CC1` [NSC799462] the “increase of IC50 versus p97^WT, P510S” value [6] was 61 fold, the IC50 [6] was 910 nM and the “Ratio of IC50 values for mutants to IC50 values for wild-type p97, P510S” value [6] was 61. For the same compound, the IC50 [1] was 6900 nM, the IC50 [7] was 15 nM and the “Ratio of IC50 values for mutants to IC50 values for wild-type p97, WT” value [7] was 1. For the same compound, the “% ATPase activity” value ([7]; inhibitor 0.000905 µM) was 98%, the “% ATPase activity” value ([7]; inhibitor 0.002716 µM) was 90% and the “% ATPase activity” value ([7]; inhibitor 0.008148 µM) was 67%. The “% ATPase activity” value ([7]; inhibitor 0.024444 µM) was 27%, the “% ATPase activity” value ([7]; inhibitor 0.073333 µM) was 15% and the “% ATPase activity” value ([7]; inhibitor 0.220000 µM) was 16%. For the same compound, the “increase of IC50 versus p97^WT, F618S” value [8] was 31 fold, the IC50 [8] was 460 nM and the “Ratio of IC50 values for mutants to IC50 values for wild-type p97, F618S” value [8] was 31. The “increase of IC50 versus p97^WT, K512N” value [9] was 3 fold, the IC50 [9] was 45 nM and the “Ratio of IC50 values for mutants to IC50 values for wild-type p97, K512N” value [9] was 3. For the same compound, the “cellular viability of HCT116” value ([4]; 0.06 µM) was 105 (2×) and 108, the “cellular viability of HCT116” value ([4]; 0.17 µM) was 93 (2×) and 96 and the “cellular viability of HCT116” value ([4]; 1.60 µM, 1.6 µM) was 4. For the same compound, the “cellular viability of HCT116” value ([4]; 42.1 µM) was 1, the viability at 0.06 µM [4] was 100% and the viability at 0.17 µM [4] was 94%. It also gave a viability at 0.52 µM [4] of 6%, a viability at 1.6 µM [4] of 5% and a viability at 4.7 µM [4] of 5%. It also gave a viability at 14 µM [4] of 5%, a viability at 42.1 µM [4] of 2% and an IC50 [4, 13] of 390 nM. For the same compound, the IC50 [4, 12] was 296 nM, the “increase of IC50 versus p97^WT, N616F” value [10] was 121 fold and the IC50 [10] was 1810 nM. The “Ratio of IC50 values for mutants to IC50 values for wild-type p97, N616F” value [10] was 121, the IC50 [11] was 11 nM and the “Ratio of IC50 values for mutants to IC50 values for wild-type p97, R155H” value [11] was 0.7. The EC50 [5] was 230 nM.
With `C[C@@H]1CN(C(=O)Cn2ncc(-c3cc(F)c(OCc4nnc(S[C@H]5C=CCCC5)n4-c4cccnc4)cc3F)n2)C[C@H](C)O1` [NSC819701] the “increase of IC50 versus p97^WT, P510S” value [6] was “more than 30 fold”, the IC50 [6] was 2800 nM and the “Ratio of IC50 values for mutants to IC50 values for wild-type p97, P510S” value [6] was 175. The IC50 [7] was 16 nM, the “Ratio of IC50 values for mutants to IC50 values for wild-type p97, WT” value [7] was 1 and the “% ATPase activity” value ([7]; inhibitor 0.000905 µM) was 102%. For the same compound, the “% ATPase activity” value ([7]; inhibitor 0.002716 µM) was 90%, the “% ATPase activity” value ([7]; inhibitor 0.008148 µM) was 71% and the “% ATPase activity” value ([7]; inhibitor 0.024444 µM) was 31%. The “% ATPase activity” value ([7]; inhibitor 0.073333 µM) was 23%, the “% ATPase activity” value ([7]; inhibitor 0.220000 µM) was 14% and the “increase of IC50 versus p97^WT, F618S” value [8] was “more than 30 fold”. The IC50 [8] was 1510 nM, the “Ratio of IC50 values for mutants to IC50 values for wild-type p97, F618S” value [8] was 94 and the “increase of IC50 versus p97^WT, K512N” value [9] was 7.5 fold. For the same compound, the IC50 [9] was 120 nM, the “Ratio of IC50 values for mutants to IC50 values for wild-type p97, K512N” value [9] was 7.5 and the IC50 [4, 13] was 830 nM. For the same compound, the “increase of IC50 versus p97^WT, N616F” value [10] was “more than 30 fold”, the IC50 [10] was 5340 nM and the “Ratio of IC50 values for mutants to IC50 values for wild-type p97, N616F” value [10] was 334. The IC50 [11] was 15 nM, the “Ratio of IC50 values for mutants to IC50 values for wild-type p97, R155H” value [11] was 0.9 and the EC50 [5] was 660 nM.
